In paper PMC9736855, “Discovery of 3-Amino-1H-pyrazole-Based Kinase Inhibitors to Illuminate the Understudied PCTAIRE Family” (International Journal of Molecular Sciences, 2022):
Several values for one entry are separate records, joined by “and”; a condition that tells them apart may be missing. Equal values may be shown once.

Key:
Type in all cases: binding
UKL3 = biological target: T1, UKL3 (Homo sapiens, UniProt Q6PHR2); experiment: DSF;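 further: compound tested at 10 µM with 2 µM protein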
T1 construct: purchased in-house DSF panel (SGC Frankfurt)
T1 sequence (Q6PHR2 1-279): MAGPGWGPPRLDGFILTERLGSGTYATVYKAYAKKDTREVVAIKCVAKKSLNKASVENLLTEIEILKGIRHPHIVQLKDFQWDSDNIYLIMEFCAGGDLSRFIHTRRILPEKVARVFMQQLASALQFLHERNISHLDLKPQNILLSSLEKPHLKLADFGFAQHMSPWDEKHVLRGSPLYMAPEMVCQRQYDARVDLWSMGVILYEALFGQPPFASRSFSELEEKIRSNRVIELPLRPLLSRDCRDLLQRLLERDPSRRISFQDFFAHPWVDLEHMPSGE
Protocol: (§2) Recombinant protein kinase domains with a concentration of 2 μM were mixed with a 10 μM compound solution in DMSO, 20 mM HEPES, pH 7.5, and 500 mM NaCl. SYPRO Orange (5000×, Invitrogen) was added as a fluorescence probe (1 µl per mL). Subsequently, temperature-dependent protein unfolding profiles were measured, using the QuantStudio™ 5 realtime PCR machine (Thermo Fisher, Waltham, MA, USA). […] The temperature was raised with a step rate of 3 °C per minute. Data points were analyzed with the internal software (Thermal Shift SoftwareTM Version 1.4, Thermo Fisher) using the Boltzmann equation to determine the inflection point of the transition curve [56]. Differences in melting temperature are given as ΔTm values in °C. Measurements were performed in duplicates.

MAP2K4 = biological target: T2, MAP2K4 (Homo sapiens, UniProt P45985); experiment: DSF
T2 construct: purchased in-house DSF panel (SGC Frankfurt)
T2 sequence (P45985 102-367): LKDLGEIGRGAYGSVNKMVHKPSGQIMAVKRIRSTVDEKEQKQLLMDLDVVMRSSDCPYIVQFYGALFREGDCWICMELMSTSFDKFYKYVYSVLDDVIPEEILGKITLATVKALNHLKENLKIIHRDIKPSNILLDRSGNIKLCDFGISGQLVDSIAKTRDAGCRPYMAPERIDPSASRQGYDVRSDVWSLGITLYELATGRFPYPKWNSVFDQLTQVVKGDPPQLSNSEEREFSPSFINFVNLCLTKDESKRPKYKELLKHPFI
Protocol: as §2

[1] = tested on: in-house panel of 89–105 kinases; experiment: DSF selectivity screen
Excerpt: To investigate the selectivity profile of the different series, a differential scanning fluorimetry (DSF) assay was used. This assay offers a rapid and sensitive screening method that determines the denaturation temperature of a protein in absence and presence of a compound. This assay format measures the fluorescence of a dye, which depends on the folding state of the protein. The difference between the melting temperature (ΔTm) in the absence and presence of the compound represents the binding strength to the protein. We used an in-house panel of 89–105 kinases to screen all synthesized inhibitors (Tables S1–S3).
Measurements were performed in duplicates.

GPRK5 = biological target: T3, GPRK5 (Homo sapiens, UniProt P34947); experiment: DSF
T3 construct: purchased in-house DSF panel (SGC Frankfurt)
T3 sequence (P34947 whole entry): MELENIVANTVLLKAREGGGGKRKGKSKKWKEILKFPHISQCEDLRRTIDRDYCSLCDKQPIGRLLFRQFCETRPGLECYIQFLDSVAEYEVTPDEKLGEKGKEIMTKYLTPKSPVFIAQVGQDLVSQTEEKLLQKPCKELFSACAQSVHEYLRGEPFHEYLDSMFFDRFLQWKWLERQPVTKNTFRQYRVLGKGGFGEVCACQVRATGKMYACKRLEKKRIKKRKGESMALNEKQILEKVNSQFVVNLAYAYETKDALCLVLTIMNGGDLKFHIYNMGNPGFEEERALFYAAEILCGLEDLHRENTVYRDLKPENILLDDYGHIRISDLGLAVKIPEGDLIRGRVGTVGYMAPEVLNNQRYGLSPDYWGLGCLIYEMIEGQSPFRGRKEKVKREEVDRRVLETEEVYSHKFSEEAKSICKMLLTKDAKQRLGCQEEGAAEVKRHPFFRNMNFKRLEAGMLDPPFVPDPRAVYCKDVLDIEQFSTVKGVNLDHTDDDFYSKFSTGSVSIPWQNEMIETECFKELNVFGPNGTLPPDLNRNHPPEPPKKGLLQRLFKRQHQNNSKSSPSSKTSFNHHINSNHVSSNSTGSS
Protocol: as §2

MST4 = biological target: T4, MST4 (Homo sapiens, UniProt Q9P289); experiment: DSF
T4 construct: purchased in-house DSF panel (SGC Frankfurt)
T4 sequence (Q9P289 1-300): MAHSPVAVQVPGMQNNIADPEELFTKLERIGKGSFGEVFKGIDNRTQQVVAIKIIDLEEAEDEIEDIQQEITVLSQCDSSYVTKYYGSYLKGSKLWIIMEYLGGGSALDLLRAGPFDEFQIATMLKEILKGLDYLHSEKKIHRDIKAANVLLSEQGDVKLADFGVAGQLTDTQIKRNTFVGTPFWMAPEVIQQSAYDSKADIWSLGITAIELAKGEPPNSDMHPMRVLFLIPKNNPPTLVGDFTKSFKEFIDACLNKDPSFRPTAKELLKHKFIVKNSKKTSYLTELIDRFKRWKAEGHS
Protocol: as §2

STK38L = biological target: T5, STK38L (Homo sapiens, UniProt Q9Y2H1); experiment: DSF
T5 construct: purchased in-house DSF panel (SGC Frankfurt)
T5 sequence (Q9Y2H1 90-453): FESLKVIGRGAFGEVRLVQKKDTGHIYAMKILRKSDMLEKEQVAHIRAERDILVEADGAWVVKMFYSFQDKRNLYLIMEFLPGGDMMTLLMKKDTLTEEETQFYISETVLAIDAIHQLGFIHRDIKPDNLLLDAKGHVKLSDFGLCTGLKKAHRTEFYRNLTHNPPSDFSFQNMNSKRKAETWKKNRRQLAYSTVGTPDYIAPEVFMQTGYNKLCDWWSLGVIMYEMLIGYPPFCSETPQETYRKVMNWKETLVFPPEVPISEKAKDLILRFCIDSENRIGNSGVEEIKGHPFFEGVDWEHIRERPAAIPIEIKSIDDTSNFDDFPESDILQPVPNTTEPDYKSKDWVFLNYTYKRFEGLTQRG
Protocol: as §2

CDK2 = biological target: T6, CDK2 (Homo sapiens, UniProt P24941); experiment: DSF; settings: 10 μM compound
T6 construct: purchased in-house DSF panel (SGC Frankfurt)
Outline: (§1)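 Differential scanning fluorimetry follows unfolding of the protein through fluorescence of a dye that depends on folding state. The value is ΔTm, the melting-temperature shift between compound-free and compound-bound protein. Duplicate measurements.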

CDK16 = biological target: T7, CDK16 (Homo sapiens, UniProt Q00536); experiment: DSF; settings: 10 μM compound
T7 construct: purchased in-house DSF panel (SGC Frankfurt)
T7 sequence (Q00536 163-478): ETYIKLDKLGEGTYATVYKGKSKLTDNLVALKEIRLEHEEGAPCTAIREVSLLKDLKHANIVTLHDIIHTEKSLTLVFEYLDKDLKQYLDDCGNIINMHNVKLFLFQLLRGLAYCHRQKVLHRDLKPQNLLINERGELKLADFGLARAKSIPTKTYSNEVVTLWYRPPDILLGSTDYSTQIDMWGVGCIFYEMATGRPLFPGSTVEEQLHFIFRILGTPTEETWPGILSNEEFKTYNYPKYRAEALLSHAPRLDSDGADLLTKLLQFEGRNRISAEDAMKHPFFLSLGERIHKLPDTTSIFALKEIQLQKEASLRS
Outline: as §1

MAP2K6 = biological target: T8, MAP2K6 (Homo sapiens, UniProt P52564); experiment: DSF
T8 construct: purchased in-house DSF panel (SGC Frankfurt)
T8 sequence (P52564 53-314): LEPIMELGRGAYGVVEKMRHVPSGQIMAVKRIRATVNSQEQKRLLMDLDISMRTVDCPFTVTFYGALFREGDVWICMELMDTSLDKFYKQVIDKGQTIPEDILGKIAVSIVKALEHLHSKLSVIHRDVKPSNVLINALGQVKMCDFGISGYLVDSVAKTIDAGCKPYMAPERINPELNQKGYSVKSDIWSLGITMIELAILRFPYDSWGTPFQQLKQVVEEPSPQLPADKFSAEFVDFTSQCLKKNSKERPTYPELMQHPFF
Protocol: as §2

BMPR2 = biological target: T9, BMPR2 (Homo sapiens, UniProt Q13873); experiment: DSF
T9 construct: purchased in-house DSF panel (SGC Frankfurt)
T9 sequence (Q13873 27-1038): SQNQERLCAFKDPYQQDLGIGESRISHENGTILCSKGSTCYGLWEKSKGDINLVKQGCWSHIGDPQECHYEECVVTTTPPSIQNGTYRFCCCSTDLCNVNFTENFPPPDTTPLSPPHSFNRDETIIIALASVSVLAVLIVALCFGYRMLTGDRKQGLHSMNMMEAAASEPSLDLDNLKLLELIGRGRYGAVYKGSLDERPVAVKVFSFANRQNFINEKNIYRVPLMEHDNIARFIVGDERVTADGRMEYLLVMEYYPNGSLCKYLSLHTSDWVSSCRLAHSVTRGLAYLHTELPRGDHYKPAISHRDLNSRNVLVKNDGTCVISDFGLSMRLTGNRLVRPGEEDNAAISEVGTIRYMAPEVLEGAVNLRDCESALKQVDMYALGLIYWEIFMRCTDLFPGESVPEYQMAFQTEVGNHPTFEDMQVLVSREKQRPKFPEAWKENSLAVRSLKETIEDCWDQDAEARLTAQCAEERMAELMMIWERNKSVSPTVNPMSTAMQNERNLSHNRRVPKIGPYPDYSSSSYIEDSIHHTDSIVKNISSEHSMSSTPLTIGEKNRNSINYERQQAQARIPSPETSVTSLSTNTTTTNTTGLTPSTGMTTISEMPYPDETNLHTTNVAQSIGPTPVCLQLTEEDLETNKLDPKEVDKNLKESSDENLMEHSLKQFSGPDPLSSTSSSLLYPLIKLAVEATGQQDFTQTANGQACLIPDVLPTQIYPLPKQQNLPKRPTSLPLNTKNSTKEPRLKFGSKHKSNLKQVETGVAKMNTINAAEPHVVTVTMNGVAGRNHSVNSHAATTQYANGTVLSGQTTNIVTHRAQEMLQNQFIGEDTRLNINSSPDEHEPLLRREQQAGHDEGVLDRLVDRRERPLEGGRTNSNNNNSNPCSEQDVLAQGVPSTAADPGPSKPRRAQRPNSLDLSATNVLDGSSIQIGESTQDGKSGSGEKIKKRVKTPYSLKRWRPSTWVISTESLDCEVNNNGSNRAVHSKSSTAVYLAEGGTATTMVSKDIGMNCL
Protocol: as §2

MAP2K1 = biological target: T10, MAP2K1 (Homo sapiens, UniProt Q02750); experiment: DSF
T10 construct: purchased in-house DSF panel (SGC Frankfurt)
T10 sequence (Q02750 68-361): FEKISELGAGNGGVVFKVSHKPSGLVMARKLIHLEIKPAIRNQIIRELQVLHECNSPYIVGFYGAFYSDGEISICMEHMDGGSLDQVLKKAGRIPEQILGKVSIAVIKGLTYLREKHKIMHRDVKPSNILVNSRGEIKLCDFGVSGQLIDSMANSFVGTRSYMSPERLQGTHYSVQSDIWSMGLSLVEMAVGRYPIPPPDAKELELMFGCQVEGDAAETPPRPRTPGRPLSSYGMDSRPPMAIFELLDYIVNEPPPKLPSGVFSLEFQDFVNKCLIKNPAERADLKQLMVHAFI
Protocol: as §2

SMILES	ΔTm UKL3 (UKL3)	ΔTm MAP2K4 (MAP2K4)	kinases beside CDK16 with DSF shift >5 °C (potential off-targets) [1]	ΔTm GPRK5 (GPRK5)	ΔTm MST4 (MST4)	ΔTm STK38L (STK38L)	ΔTm at 10 µM (CDK2)	ΔTm at 10 µM (CDK16)	ΔTm MAP2K6 (MAP2K6)	ΔTm BMPR2 (BMPR2)	Kinases with shifts > 5°C ([1]; number of kinases of the DSF panel)	ΔTm MAP2K1 (MAP2K1)
CC(C)OC(=O)c1cc(Nc2ccnc(NCc3ccc(NC(=O)OC(C)(C)C)cc3)n2)n[nH]1 [42d, isopropyl 3-((2-((4-((tert-butoxycarbonyl)amino)benzyl)amino)pyrimidin-4-yl)amino)-1H-pyrazole-5-carboxylate]	2.3 °C	0.4 °C	1–2 and 1	-1.3 °C	0.1 °C	0.0 °C	3 °C	8.4 °C	5.0 °C	0.9 °C		
COC(=O)c1cc(Nc2ccnc(NCc3ccc(NC(=O)OC(C)(C)C)cc3)n2)[nH]n1 [21i, methyl 5-((2-((4-((tert-butoxycarbonyl)amino)benzyl)amino)pyrimidin-4-yl)amino)-1H-pyrazole-3-carboxylate]	0.3 °C	2.4 °C		0.7 °C	-0.7 °C	0.9 °C	3.3 °C	6.5 °C	5.4 °C	1.1 °C	4–9	-0.5 °C
CC(C)(C)OC(=O)Nc1ccc(CNc2nccc(Nc3cc(C(=O)OC(C)(C)C)[nH]n3)n2)cc1 [43d, tert-butyl 3-((2-((4-((tert-butoxycarbonyl)amino)benzyl)amino)pyrimidin-4-yl)amino)-1H-pyrazole-5-carboxylate]	3.3 °C	1.0 °C	1–2 and 2	-1.4 °C	-0.1 °C	0.0 °C	3.2 °C	9.2 °C	3.0 °C	1.4 °C		
COC(=O)c1cc(Nc2ccnc(NCCOCCNC(=O)OC(C)(C)C)n2)[nH]n1 [21d, methyl 5-((2-((2-(2-((tert-butoxycarbonyl)amino)ethoxy)ethyl)amino)pyrimidin-4-yl)amino)-1H-pyrazole-3-carboxylate]	0.9 °C	0.9 °C		0.2 °C	0.7 °C	1.2 °C	1.9 °C	4.3 °C	1.4 °C	0.7 °C		0.7 °C
N#CCc1ccc(Nc2nccc(Nc3cc(C4CC4)[nH]n3)n2)cc1 [compound 1, reference compound]	8.3 °C	10.0 °C		5.2 °C	7.1 °C	8.7 °C	15.2 °C	10.3 °C	10.4 °C	9.2 °C		1.4 °C
